The values that follow come from PMC4393269, “Carvacrol Codrugs: A New Approach in the Antimicrobial Plan” (PLoS ONE, 2015).

Holding throughout (format): cell-based
One series has as its system E. coli ATCC 8739. Kind of series: Broth microdilution MIC/MBC on planktonic cells. The settings on record: Escherichia coli, ATCC8739; for MIC: E. coli ATCC 8739, 24 h at 37°C, read-out: MIC; for MBC: E. coli ATCC 8739, read-out: MBC. The method, then: (§1) Two Gram-positive (S. aureus ATCC 29213 and S. epidermidis ATCC 35984) and two Gram-negative (E. coli ATCC 8739 and P. aeruginosa ATCC 9027) strains, and one fungal strain (C. albicans ATCC 10231) were used for the detection of antibacterial activity of carvacrol, NAC, Ac-Cys(Allyl)-OH, and carvacrol codrugs 1–10. All tested compounds were dissolved in 20% DMSO to prepare the stock solution (100 mg/mL). The final concentration of DMSO in each well appeared to be not toxic for all studied microorganisms, as confirmed by the solvent control test included in the study.
(§2) The effects of carvacrol codrugs 1–10 and reference compounds on planktonic cells were evaluated by Minimum Inhibitory Concentration (MIC) and Minimum Bactericidal Concentration (MBC) determination using the broth microdilution method according to EUCAST guidelines. Bacterial suspensions, grown in Mueller–Hinton Broth (MHB) at logarithmic phase, were incubated on microtiter plates at a concentration of 5 x 10^5 CFU/mL, with several dilutions (0.07–40 mg/mL) for 24 h at 37°C. The MIC was defined as the lowest concentration of substances giving a complete inhibition of visible growth in comparison with a control well, and the MBC was determined as the lowest concentration at which no bacterial growth occurred on Mueller–Hinton Agar plates.
(§3) Data were obtained from at least three independent experiments performed in duplicate. The susceptibility of the bacterial strains against ciprofloxacin was used as an internal standard during MIC determinations.
A general note: Dilution methods test growth across graded concentrations, often in twofold steps.

Another series has as its system P. aeruginosa ATCC 9027. Kind of series: Broth microdilution MIC/MBC on planktonic cells. The settings on record: Pseudomonas aeruginosa, ATCC9027; for MIC: P. aeruginosa ATCC 9027, 24 h at 37°C, read-out: MIC; for MBC: P. aeruginosa ATCC 9027, read-out: MBC. The method, then:
as §1, §2, §3

The next series relates to S. aureus ATCC 29213. Description: Broth microdilution MIC/MBC on planktonic cells. Conditions: Staphylococcus aureus, ATCC29213; for MIC: S. aureus ATCC 29213, 24 h at 37°C, read-out: MIC; for MBC: S. aureus ATCC 29213, read-out: MBC. How it is done: as §1, §2, §3
The subject of series [1] is S. epidermidis ATCC 35984. Description: Broth microdilution MIC/MBC on planktonic cells. The settings on record: Staphylococcus epidermidis, ATCC35984; for MIC: S. epidermidis ATCC 35984, 24 h at 37°C, read-out: MIC; for MBC: S. epidermidis ATCC 35984, read-out: MBC. The method, then: as §1, §2, §3
In the next series the test system is C. albicans ATCC 10231. Kind of series: Broth microdilution MIC/MFC. The settings on record: Candida albicans, ATCC10231; for MIC: C. albicans ATCC 10231, 24–48 h at 37°C, read-out: MIC; for MFC: C. albicans ATCC 10231, read-out: MFC. How it is done: as §1
The MIC detection of C. albicans ATCC 10231 was performed using the broth microdilution method according to EUCAST guidelines in RPMI 1640 plus 2% glucose with a final inoculum of 1–5 x 10^5 CFU/mL for 24–48 h at 37°C. The Minimum Fungicidal Concentration (MFC) was determined as the lowest concentration of substances at which no fungal growth occurred on Sabouraud agar plates.
as §3

Series [2] has as its system human red blood cells (h-RBC). Description: Hemolytic activity. Conditions: 4% h-RBC, 1 h at 37°C; for hemolytic activity, maximum at the tested concentrations: 25 to 0.05 mg/mL. The method, then:
Experimental protocols to study hemolysis on human red cells were approved by Ethics Committee of the University “G. d’Annunzio” Chieti-Pescara. Human red cells were from two volunteers, who signed the informed consent for this study.
Hemolytic activity of carvacrol codrugs 1–10 was tested against human red blood cells (h-RBC). Fresh human blood, collected with EDTA, was centrifuged at 3000 rpm for 5 min then washed three times with PBS pH 7.3. Red blood cells were diluted to 4% in PBS and incubated with different codrugs concentrations ranging from 25 to 0.05 mg/mL. After 1 h of incubation at 37°C, the suspensions were sedimented by centrifugation and the release of hemoglobin was determined by absorbance measurement at 405 nm and compared with a 0% hemolysis control (PBS) and a 100% hemolysis control (PBS with 1% v/v Triton X-100). The percentage of hemolysis was calculated using the following equation: Hemolysis (%) = [(OD405sample - OD4050% lysis control)/(OD405100% lysis control - OD4050% lysis contro)] X 100

Values after ≈ are worked out from the molar mass of the structure shown.

As to `CSCC[C@H](NC(C)=O)C(=O)Oc1cc(C(C)C)ccc1C` [codrug 5, N-Ac-Met-CAR], the MIC was 10000 µg/mL (≈ 30.9 mM) with E. coli ATCC 8739; 5000 µg/mL (≈ 15.5 mM) with P. aeruginosa ATCC 9027; 10000 µg/mL (≈ 30.9 mM) with S. aureus ATCC 29213; 10000 µg/mL (≈ 30.9 mM) in series [1]; 5000 µg/mL (≈ 15.5 mM) with C. albicans ATCC 10231. Besides, the MBC (in the series on E. coli ATCC 8739; with P. aeruginosa ATCC 9027; in the series with S. aureus ATCC 29213; in series [1]) was 10000 µg/mL (≈ 30.9 mM) in each case. The MFC in the series on C. albicans ATCC 10231 amounted to 5000 µg/mL (≈ 15.5 mM). The “concentration at which hemolytic activity is over 50%” value in series [2] was “over 20 mg/mL”.

As for `C[Se]CC[C@H](NC(C)=O)C(=O)Oc1cc(C(C)C)ccc1C` [codrug 6, N-Ac-Met(Se)-CAR], the MIC with E. coli ATCC 8739 was 5000 µg/mL (≈ 13.5 mM); with P. aeruginosa ATCC 9027 it was 5000 µg/mL (≈ 13.5 mM); in the series on S. aureus ATCC 29213 it was 10000 µg/mL (≈ 27 mM); in series [1], 5000 µg/mL (≈ 13.5 mM); in the series on C. albicans ATCC 10231 it was 150 µg/mL (≈ 0.405 mM). The MBC (in the series with E. coli ATCC 8739; with P. aeruginosa ATCC 9027; in the series with S. aureus ATCC 29213; in series [1]) was 10000 µg/mL (≈ 27 mM) in each case. In addition, in the series with C. albicans ATCC 10231, the MFC was found to be 600 µg/mL (≈ 1.62 mM). Further, in series [2], the “concentration at which hemolytic activity is over 50%” value is reported as “over 20 mg/mL”.

In the case of `Cc1ccc(C(C)C)cc1OC(=O)CCCC[C@@H]1CCSS1` [codrug 7, LA-CAR], the MIC in the series with E. coli ATCC 8739 stood at 5000 µg/mL (≈ 14.8 mM); with P. aeruginosa ATCC 9027 it was 5000 µg/mL (≈ 14.8 mM); in the series on S. aureus ATCC 29213, 10000 µg/mL (≈ 29.5 mM); in series [1], 10000 µg/mL (≈ 29.5 mM); with C. albicans ATCC 10231 it was 2500 µg/mL (≈ 7.38 mM). The MBC (in the series on E. coli ATCC 8739; with P. aeruginosa ATCC 9027; in the series on S. aureus ATCC 29213; in series [1]) was 10000 µg/mL (≈ 29.5 mM) in each case. Further, the MFC in the series with C. albicans ATCC 10231 turned out to be 5000 µg/mL (≈ 14.8 mM). In series [2], the “hemolytic activity, maximum at the tested concentrations” value is recorded as at most 12%.

Turning to `Cc1ccc(C(C)C)cc1OC(=O)[C@@H]1CSC(=O)N1` [codrug 10, OTC-CAR], the MIC with E. coli ATCC 8739 turned out to be 10000 µg/mL (≈ 35.8 mM); in the series on P. aeruginosa ATCC 9027, 10000 µg/mL (≈ 35.8 mM); in the series with S. aureus ATCC 29213, 10000 µg/mL (≈ 35.8 mM); in series [1], 10000 µg/mL (≈ 35.8 mM); with C. albicans ATCC 10231, 2500 µg/mL (≈ 8.95 mM). For the same molecule, the MBC (with E. coli ATCC 8739; in the series on P. aeruginosa ATCC 9027; in the series with S. aureus ATCC 29213; in series [1]) was 10000 µg/mL (≈ 35.8 mM) in each case. Moreover, the MFC in the series on C. albicans ATCC 10231 is 2500 µg/mL (≈ 8.95 mM). In addition, the “hemolytic activity, maximum at the tested concentrations” value in series [2] was at most 12%.

In general, MIC refers to the lowest concentration that inhibits growth of the organism. For orientation: MBC means the lowest tested concentration that kills the bacteria rather than only halting them. The MFC is the smallest concentration meeting the test's criterion for killing the fungus.
